Data set [1] in a line: Acute toxicity in C57BL/6J mouse assessed as death at 0.75 mg/kg,ip measured after 14 days. The data set is classed as organism-based. The following applies: in vivo, 336 h, time 14 day.
In data set [2] the test system is HCT-116. Description: Antiproliferative activity against human HCT-116 cells assessed as cell growth inhibition at 1 uM incubated for 72 hrs by SRB assay. It is filed as functional. (The SRB assay estimates cell density from bound dye.)
Data set [3] deals with HCT-116. Description: Antiproliferative activity against human HCT-116 cells assessed as cell growth inhibition incubated for 72 hrs by SRB assay. The following applies: HCT-116, 72 h. It is filed as functional, cell-based.
The nature of data set [4]: Selectivity index, ratio of IC50 for antiproliferative activity against human L02 cells to IC50 for antiproliferative activity against human MCF7 cells. It is filed as toxicity, cell-based. The settings on record: L02 cells versus MCF7 cells, read-out: Ratio IC50.
Data set [5] concerns HepG2. Description: Antiproliferative activity against human HepG2 cells assessed as cell growth inhibition incubated for 72 hrs by SRB assay. The data set is classed as functional, cell-based. The settings on record: HepG2, 72 h.
Data set [6] deals with A549. Description: Induction of cell cycle arrest in human A549 cells assessed as accumulation of cells at G1 phase at 0.5 uM incubated for 24 hrs by PI staining based flow cytometric analysis (reference value: 65.6 %). The data set is classed as functional. (Flow cytometry measures light scatter and fluorescence of single cells or particles in a stream.)
Data set [7] in a line: Selectivity index, ratio of IC50 for antiproliferative activity against human L02 cells to IC50 for antiproliferative activity against human SK-OV-3 cells.
Data set [8] has as its system A549. Description: Induction of cell cycle arrest in human A549 cells assessed as accumulation of cells at G2 phase at 0.5 uM incubated for 24 hrs by PI staining based flow cytometric analysis (reference value: 9.26 %). The data set is classed as functional.
A further data set concerns MDA-MB-231. In words: Antiproliferative activity against human MDA-MB-231 cells assessed as cell growth inhibition incubated for 72 hrs by SRB assay. It is filed as functional, cell-based. The following applies: MDA-MB-231, 72 h.
The next data set has as its system SK-OV-3. Description: Antiproliferative activity against human SK-OV-3 cells assessed as cell growth inhibition incubated for 72 hrs by SRB assay. The settings on record: SK-OV-3, 72 h. It is filed as functional, cell-based.
Data set [9] is described as follows: Selectivity index, ratio of IC50 for antiproliferative activity against human L02 cells to IC50 for antiproliferative activity against human BXPC-3 cells. The data set is classed as toxicity, cell-based. The settings on record: L02 cells versus BXPC-3 cells, read-out: Ratio IC50.
In a further data set the test system is HeLa. Description: Antiproliferative activity against human HeLa cells assessed as cell growth inhibition incubated for 72 hrs by SRB assay. The data set is classed as functional, cell-based.
The test system of data set [10] is A549. In words: Antiproliferative activity against human A549 cells assessed as cell growth inhibition incubated for 72 hrs by SRB assay. It is filed as functional, cell-based. The settings on record: A549, 72 h.
A short description of data set [11]: Selectivity index, ratio of IC50 for antiproliferative activity against human L02 cells to IC50 for antiproliferative activity against human A549 cells. The settings on record: L02 cells versus A549 cells, read-out: Ratio IC50. The data set is classed as toxicity, cell-based.
For data set [12], the system named is HCT-116. In words: Antiproliferative activity against human HCT-116 cells assessed as cell growth inhibition at 0.1 uM incubated for 72 hrs by SRB assay. The data set is classed as functional.
In data set [13] the test system is A549. In words: Antitumor activity against human A549 cells xenografted in BALB/c mouse assessed as tumor growth inhibition at 0.5 mg/kg,ip administrated for 21 days. The following applies: A549, 504 h, time 21 day, read-out: TGI. The data set is classed as functional.
Data set [14] in a line: Selectivity index, ratio of IC50 for antiproliferative activity against human L02 cells to IC50 for antiproliferative activity against human HepG2 cells. The settings on record: L02 cells versus HepG2 cells, read-out: Ratio IC50. The data set is classed as toxicity, cell-based.
Data set [15] in a line: Selectivity index, ratio of IC50 for antiproliferative activity against human L02 cells to IC50 for antiproliferative activity against human PANC-1 cells.
The test system of another data set is PANC-1. In words: Antiproliferative activity against human PANC-1 cells assessed as cell growth inhibition incubated for 72 hrs by SRB assay. It is filed as functional, cell-based. The following applies: PANC-1, 72 h.
A further data set has as its system MCF7. Description: Antiproliferative activity against human MCF7 cells assessed as cell growth inhibition incubated for 72 hrs by SRB assay. The data set is classed as functional, cell-based. The following applies: MCF7, 72 h.
Data set [16] relates to A549. Description: Induction of apoptosis in human A549 cells at 0.5 uM incubated for 48 hrs by Annexin V-FITC/PI staining based flow cytometric analysis. The data set is classed as functional.
A short description of data set [17]: Selectivity index, ratio of IC50 for antiproliferative activity against human L02 cells to IC50 for antiproliferative activity against human HCT-116 cells. It is filed as toxicity, cell-based. The following applies: L02 cells versus HCT-116 cells, read-out: Ratio IC50.
Data set [18] addresses Insulin-like growth factor 2 mRNA-binding protein 1 (Homo sapiens, UniProt Q9NZI8). In words: Binding affinity to His-tagged recombinant IGF2BP1 (unknown origin) assessed as dissociation constant by surface plasmon resonance assay.
In data set [19] the test system is A549. In words: Induction of cell cycle arrest in human A549 cells assessed as accumulation of cells at S phase at 0.5 uM incubated for 24 hrs by PI staining based flow cytometric analysis (reference value: 23 %). It is filed as functional.
The nature of data set [20]: Antiproliferative activity against human L02 cells assessed as cell growth inhibition at 0.1 uM incubated for 72 hrs by SRB assay. It is filed as toxicity, cell-based.
Data set [21] is described as follows: Selectivity index, ratio of IC50 for antiproliferative activity against human L02 cells to IC50 for antiproliferative activity against human HeLa cells. It is filed as toxicity, cell-based. The following applies: L02 cells versus HeLa cells, read-out: Ratio IC50.
The test system of another data set is BXPC-3. Description: Antiproliferative activity against human BXPC-3 cells assessed as cell growth inhibition incubated for 72 hrs by SRB assay. The settings on record: BXPC-3, 72 h. It is filed as functional, cell-based.
Data set [22] in a line: Selectivity index, ratio of IC50 for antiproliferative activity against human L02 cells to IC50 for antiproliferative activity against human MDA-MB-231 cells. The data set is classed as toxicity, cell-based. The settings on record: L02 cells versus MDA-MB-231 cells, read-out: Ratio IC50.
Data set [23] can be described thus: Antiproliferative activity against human L02 cells assessed as cell growth inhibition incubated for 72 hrs by SRB assay. It is filed as toxicity, cell-based.
Data set [24] can be described thus: Selectivity index, ratio of IC50 for antiproliferative activity against human L02 cells to IC50 for antiproliferative activity against human CFPAC-1 cells.
In another data set the test system is CFPAC-1. In words: Antiproliferative activity against human CFPAC-1 cells assessed as cell growth inhibition incubated for 72 hrs by SRB assay. The data set is classed as functional, cell-based. The following applies: CFPAC-1, 72 h.
Data set [25] is described as follows: Antiproliferative activity against human L02 cells assessed as cell growth inhibition at 1 uM incubated for 72 hrs by SRB assay. It is filed as toxicity, cell-based.
Data set [26] can be described thus: Antiproliferative activity against human L02 cells assessed as cell growth inhibition incubated for 72 hrs by MTT assay. The data set is classed as toxicity, cell-based.
For data set [27], the system named is HepG2. Description: Antiproliferative activity against human HepG2 cells assessed as cell growth inhibition incubated for 72 hrs by MTT assay. It is filed as functional, cell-based. The settings on record: HepG2, 72 h.

Sequence of Insulin-like growth factor 2 mRNA-binding protein 1 (Q9NZI8 whole entry): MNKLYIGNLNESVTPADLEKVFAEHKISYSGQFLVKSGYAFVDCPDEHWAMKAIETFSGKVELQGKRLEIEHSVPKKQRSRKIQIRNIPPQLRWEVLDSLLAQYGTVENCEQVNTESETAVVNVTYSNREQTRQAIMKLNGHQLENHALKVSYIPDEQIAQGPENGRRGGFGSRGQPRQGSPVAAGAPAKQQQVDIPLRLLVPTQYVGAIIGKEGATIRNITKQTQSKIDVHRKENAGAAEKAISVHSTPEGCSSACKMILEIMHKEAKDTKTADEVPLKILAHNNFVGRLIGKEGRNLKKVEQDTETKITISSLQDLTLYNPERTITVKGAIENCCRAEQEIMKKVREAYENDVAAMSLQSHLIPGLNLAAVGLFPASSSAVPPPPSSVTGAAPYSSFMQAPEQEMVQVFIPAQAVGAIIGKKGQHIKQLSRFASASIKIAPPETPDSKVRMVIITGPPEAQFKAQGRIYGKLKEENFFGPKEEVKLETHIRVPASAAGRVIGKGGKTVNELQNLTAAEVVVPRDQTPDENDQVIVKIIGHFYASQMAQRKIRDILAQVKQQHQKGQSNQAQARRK

By inhibition is commonly meant the drop in the measured response relative to a control, in per cent. Broadly, the IC50 is the concentration needed to halve the response being measured. In general, Kd refers to the concentration at which binding is half-saturated. As to `CC(=O)OC(C)(C)/C=C/C(=O)[C@](C)(O)[C@H]1[C@H](O)C[C@@]2(C)[C@@H]3CC=C4[C@@H](C[C@H](O)C(=O)C4(C)C)[C@]3(C)C(=O)C[C@]12C`, the Activity result in [1] is “Non-Toxic”; in the data set with A549 [6], 51.1%; in the data set on A549 [8], 37.2%; with A549 [16], 29.1%; in the data set on A549 [19] it was 10.2%. Moreover, in the data set on HCT-116 [2], the inhibition at 1 µM worked out at 82.7%. Further, the IC50 in the data set on HCT-116 [3] worked out at 0.019 µM; with HepG2 [5], 0.051 µM; in the data set on MDA-MB-231 it was 0.037 µM; in the data set on SK-OV-3, 0.047 µM; in the data set with HeLa it was 0.024 µM; in the data set on A549 [10], 0.088 µM. In addition, the IC50 in the data set with PANC-1 is 0.067 µM; in the data set with MCF7, 0.04 µM; in the data set on BXPC-3, 0.022 µM; in the data set with CFPAC-1, 0.023 µM. The selectivity ratio in [4] came to 0.23; in [9] it was 0.5; in data set [11], 0.13; in data set [14], 0.22; in data set [17] it was 0.57; in data set [21], 0.46. Further, in [22], the selectivity ratio was 0.3. The “Ratio IC50” value in [7] turned out to be 0.23; in [15], 0.16; in [24], 0.49. Besides, in the data set with HCT-116 [12], the inhibition at 0.1 µM came out at 69%. In addition, in the data set with A549 [13], the inhibition in vivo at 0.5 mg/kg amounted to 53%. Also, the Kd in [18] amounted to 0.0662 µM. Besides, in data set [20], the inhibition at 72 h, 0.1 µM came to 70.6%. In data set [23], the IC50 at 72 h was 0.011 µM. The inhibition at 72 h, 1 µM in [25] was found to be 70.7%.

For the molecule `CC(=O)OC(C)(C)/C=C/C(=O)[C@](C)(O)[C@H]1[C@H](OCCCC(=O)OCCCOc2no[n+]([O-])c2S(=O)(=O)c2ccccc2)C[C@@]2(C)[C@@H]3CC=C4[C@@H](C[C@H](O)C(=O)C4(C)C)[C@]3(C)C(=O)C[C@]12C`, the IC50 at 72 h in data set [26] turned out to be 2.97 µM. In the data set with HepG2 [27], the IC50 came to 0.63 µM.

Source of the values: ChEMBL document CHEMBL5365466, “Discovery of Triazolyl Derivatives of Cucurbitacin B Targeting IGF2BP1 against Non-Small Cell Lung Cancer” (J Med Chem, 2023).
